Measured values as given in patent US20090047243A1, “COMBINATIONS FOR THE TREATMENT OF B-CELL PROLIFERATIVE DISORDERS” (priority 2007, published 2009).

How the values were obtained:
[1] = test system: patient CLL cells; test: Apoptosis assay (Hoechst 33342, flow cytometry, 48 h); type: cell-based, human; design: unit not given here; conditions: CGS-21680 0 μM
Source text: Blood samples were obtained in heparinized tubes with IRB-approved consent from flow cytometry-confirmed B-CLL patients that were either untreated or for whom at least 1 month had elapsed since chemotherapy. Patients with active infections or other serious medical conditions were not included in this study. Patients with white blood cell counts of less than 15,000/μl by automated analysis were excluded from this study. Whole blood was layered on Ficoll-Hystopaque (Sigma), and peripheral blood mononuclear cells (PBMC) isolated after centrification. […] One million cells were stained with anti-CD5-PE and anti-CD19-PE-Cy5 (Becton Dickenson, Franklin Lakes N.J.). The percentage of B-CLL cells was defined as the percentage of cells doubly expressing CD5 and CDl9, as determined by flow cytometry. […] Compound master plates were diluted 1:50 into complete media to create working compound dilutions. Compound crosses were then created by diluting two working dilution plates 1:10 into each plate of cells. […] Hoechst 33342 (Molecular Probes, Eugene Oreg.) at a final concentration of 0.25 μg/1 mL was added to each well, and the cells incubated at 37° C. for an additional ten minutes before being placed on ice until analysis. Plates were then analyzed on a LSR-II flow cytometer (Becton Dickenson, Franklin Lakes, N.J.) equipped with the High Throughput Sampling (HTS) option in high throughput mode. […] The apoptotic fraction was calculated using FlowJo software (Tree Star Inc., Ashland, Oreg.) after excluding debris by a FSC/SSC gate and subsequently gating for cells that accumulate the Hoechst dye.

[2] = test system: MOLP-8 MM cell line; test: Anti-proliferation assay (ATPLite, 72 h); type: cell-based, human; conditions: CGS-21680 × PDE inhibitor
Method: (§1) ANBL6 and INA-6 culture media was also supplemented with 10 ng/ml IL-6. […] MM.1S, MM.1R, OCI-ly10, Karpas 422, and SU-DHL6 cells were provided by the Dana Farber Cancer Institute. H929, RPMI-8226, GA-10, and Farage cells were from ATCC (Cat #'s CCL-155, CRL-9068, CRL-2392 and CRL-2630 respectively). MOLP-8, EJM, KSM-12-PE, and OPM2 were from DSMZ. The ANBL6 and INA-6 cell lines were provided by the M. D. Anderson Cancer Research Center. Compounds were prepared in DMSO at 1000× the highest desired concentration. Master plates were generated consisting of serially diluted compounds in 2- or 3-fold dilutions in 384-well format. For single agent dose response curves, the master plates consisted of 9 individual compounds at 12 concentrations in 2- or 3-fold dilutions. For combination matrices, master plates consisted of individual compounds at 6 or 9 concentrations at 2- or 3-fold dilutions. […] To obtain combination data, two master plates were diluted into the assay plates. […] Thirty microliters of ATPLite (Perkin Elmer) at room temperature was then added to each well. […] Measurements were taken at the top of the well using a luminescence aperture and a read time of 0.1 seconds per well. The percent inhibition (% I) for each well was calculated using the following formula: % I=[(avg. untreated wells-treated well)/(avg. untreated wells)]×100. […] Negative inhibition values result from local variations in treated wells as compared to untreated wells. […] The uncertainty of each fitted parameter was estimated from the range over which the change in reduced chi-squared was less than one, or less than minimum reduced chi-squared if that minimum exceeded one, to allow for underestimated σI errors. Single agent curve data were used to define a dilution series for each compound to be used for combination screening in a 6×6 matrix format. […] The Loewe additivity model was used to quantify combination effects. […] A “Synergy Score” was also used, where the Synergy Score S=log fX log fY ΣIdata(Idata-ILoewe), summed over all non-single-agent concentration pairs, and where log fX,Y is the natural logarithm of the dilution factors used for each single agent. This effectively calculates a volume between the measured and Loewe additive response surfaces, weighted towards high inhibition and corrected for varying dilution factors. An uncertainty σS was calculated for each synergy score, based on the measured errors for the Idata values and standard error propagation.

[3] = test system: ANBL6 MM cell line; test: Anti-proliferation assay (ATPLite, 72 h); type: cell-based, human; conditions: CGS-21680 × PDE inhibitor
Method: as §1

[4] = test system: INA-6 MM cell line; test: Anti-proliferation assay (ATPLite, 72 h); type: cell-based, human; conditions: CGS-21680 × PDE inhibitor
Method: as §1

[5] = test system: OPM2 MM cell line; test: Anti-proliferation assay (ATPLite, 72 h); type: cell-based, human; conditions: CGS-21680 × PDE inhibitor
Method: as §1

[6] = test system: EJM MM cell line; test: Anti-proliferation assay (ATPLite, 72 h); type: cell-based, human; conditions: CGS-21680 × PDE inhibitor
Method: as §1

[7] = test system: KSM-12-PE MM cell line; test: Anti-proliferation assay (ATPLite, 72 h); type: cell-based, human; conditions: CGS-21680 × PDE inhibitor
Method: as §1

[8] = test system: human multiple myeloma cells (MM.1S); test: Anti-proliferation assay (ATPLite, 72 h); type: cell-based; design: key to synergy score / synergy (score), PDEi × HE-NECA: S = lnfX·lnfY·ΣIdata(Idata−ILoewe), volume over Loewe additivity
How it was run: (§2)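 Cells treated 72 h with compounds in 2- or 3-fold serial dilutions (12 concentrations for single agents; 6×6 matrix for combinations); INA-6 medium supplemented with 10 ng/ml IL-6. Viability by ATPLite luminescence; % inhibition vs untreated wells, curves fitted, combinations assessed by Loewe additivity and Synergy Score.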

[9] = test system: H929 multiple myeloma cell line; test: Anti-proliferation assay (ATPLite, 72 h); type: cell-based, human; design: key: S = lnfX·lnfY·ΣIdata(Idata−ILoewe), volume over Loewe additivity
How it was run: as §2

[10] = test system: RPMI-8226 multiple myeloma cell line; test: Anti-proliferation assay (ATPLite, 72 h); type: cell-based, human; design: key: S = lnfX·lnfY·ΣIdata(Idata−ILoewe), volume over Loewe additivity
How it was run: as §2

[11] = test system: human multiple myeloma cells (MM.1R); test: Anti-proliferation assay (ATPLite, 72 h); type: cell-based; design: key: S = lnfX·lnfY·ΣIdata(Idata−ILoewe), volume over Loewe additivity
How it was run: as §2

[12] = test system: phosphodiesterase (PDE) types; conditions: PDE type(s) in brackets after the name; cited from earlier work

O=C(Nc1c(Cl)cncc1Cl)c1ccc(OC(F)F)c(OCC2CC2)c1 [Roflumilast, 3-(cyclopropylmethoxy)-N-(3,5-dichloro-4-pyridinyl)-4-(difluoromethoxy)-benzamide]
Induction of apoptosis ([1]; Roflumilast 0.03 μM): 17 | Induction of apoptosis ([1]; Roflumilast 0.09 μM): 26 | Induction of apoptosis ([1]; Roflumilast 0.27 μM): 32 | synergy score [2]: 3.44 | synergy score [3]: 3.73 | synergy score [4]: 2.62 | synergy score [5]: 0.29 | synergy score [6]: 1.06 | synergy score [7]: 0.27 | inhibition at 0.0631 µM ([8]; Homo sapiens, MM1.S, Roflumilast 0.0631 μM, Cl-IB-MECA conc. (μM), read-out: Percent inhibition of ATP in MM.1S cells): -7.1% | inhibition at 0.126 µM ([8]; Homo sapiens, MM1.S, Roflumilast 0.126 μM, Cl-IB-MECA conc. (μM), read-out: Percent inhibition of ATP in MM.1S cells): 1.5% | inhibition at 0.252 µM ([8]; Homo sapiens, MM1.S, Roflumilast 0.252 μM, Cl-IB-MECA conc. (μM), read-out: Percent inhibition of ATP in MM.1S cells): -3.5% | inhibition at 0.505 µM ([8]; Homo sapiens, MM1.S, Roflumilast 0.505 μM, Cl-IB-MECA conc. (μM), read-out: Percent inhibition of ATP in MM.1S cells): 11% | inhibition at 1.01 µM ([8]; Homo sapiens, MM1.S, Roflumilast 1.01 μM, Cl-IB-MECA conc. (μM), read-out: Percent inhibition of ATP in MM.1S cells): 7.5% | synergy score ([8]; PDE inhibitor crossed with (S) ENBA, MM.1S): 2.19 | synergy score ([8]; PDE inhibitor crossed with Chloro-IB-MECA, MM.1S): 2.12 | synergy score ([8]; PDE inhibitor crossed with HE-NECA, MM.1S): 2 | synergy score ([8]; in combination with adenosine receptor agonist CGS-21680, MM.1S): 3.82 | synergy score ([8]; in combination with adenosine receptor agonist HE-NECA, MM.1S): 2 | synergy score ([8]; in combination with adenosine receptor agonist regadenoson, MM.1S): 3.56 | synergy score ([9]; PDE inhibitor crossed with (S) ENBA, H929): 1.77 | synergy score ([9]; PDE inhibitor crossed with Chloro-IB-MECA, H929): 1.16 | synergy score ([9]; PDE inhibitor crossed with HE-NECA, H929): 0.98 | synergy score ([9]; in combination with adenosine receptor agonist CGS-21680, H929): 3.71 | synergy score ([9]; in combination with adenosine receptor agonist HE-NECA, H929): 0.98 | synergy score ([9]; in combination with adenosine receptor agonist regadenoson, H929): 2.7 | synergy score ([10]; in combination with adenosine receptor agonist CGS-21680, RPMI 8226): 0.69 | synergy score ([10]; in combination with adenosine receptor agonist HE-NECA, RPMI-8226): 0.466 | synergy score ([10]; in combination with adenosine receptor agonist regadenoson, RPMI 8226): 1.12 | synergy score ([11]; in combination with adenosine receptor agonist CGS-21680, MM.1R): 3.61 | synergy score ([11]; in combination with adenosine receptor agonist regadenoson, MM.1R): 5.83 | PDE inhibitors (specificity) [12]: Roflumilast (4)
